± gives the standard error.
Legend:
UMB1949 (TSC2-deficient) = assay: relative viability vs DMSO (fraction); higher = less cytotoxic; details: serum: 0.1% FBS, 72 h;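 note: renal angiomyolipoma cell lines screened in 384-well plates, viability normalized per plate to DMSO-treated cells, each plate carrying 50 nM rapamycin and 1 µM staurosporine controls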
621-102 (TSC2-deficient) [1] = assay: as above; details: serum: 0.1% FBS, 72 h
621-103 (TSC2-rescued) = assay: relative viability vs DMSO; higher = less cytotoxic; details: serum: 10% FBS, 72 h
621-102 (TSC2-deficient) [2] = assay: as above; details: serum: 10% FBS, 72 h

SMILES	relative viability (UMB1949 (TSC2-deficient); 0.0128 nM)	relative viability (UMB1949 (TSC2-deficient); 0.064 nM)	relative viability (UMB1949 (TSC2-deficient); 0.32 nM)	relative viability (UMB1949 (TSC2-deficient); 1.6 nM)	relative viability (UMB1949 (TSC2-deficient); 8 nM)	relative viability (UMB1949 (TSC2-deficient); 40 nM)	relative viability (UMB1949 (TSC2-deficient); 200 nM)	relative viability (UMB1949 (TSC2-deficient); 1000 nM)	relative viability (UMB1949 (TSC2-deficient); 5000 nM)	relative viability (621-102 (TSC2-deficient) [1]; 0.0128 nM)	relative viability (621-102 (TSC2-deficient) [1]; 0.064 nM)	relative viability (621-102 (TSC2-deficient) [1]; 0.32 nM)	relative viability (621-102 (TSC2-deficient) [1]; 1.6 nM)	relative viability (621-102 (TSC2-deficient) [1]; 8 nM)	relative viability (621-102 (TSC2-deficient) [1]; 40 nM)	relative viability (621-102 (TSC2-deficient) [1]; 200 nM)	relative viability (621-102 (TSC2-deficient) [1]; 1000 nM)	relative viability (621-102 (TSC2-deficient) [1]; 5000 nM)	relative viability (621-103 (TSC2-rescued); 0.0001 µM) [%]	relative viability (621-103 (TSC2-rescued); 0.001 µM) [%]	relative viability (621-103 (TSC2-rescued); 0.01 µM) [%]	relative viability (621-103 (TSC2-rescued); 0.1 µM) [%]	relative viability (621-103 (TSC2-rescued); 1 µM) [%]	relative viability (621-103 (TSC2-rescued); 10 µM) [%]	relative viability (621-102 (TSC2-deficient) [2]; 0.0001 µM) [%]	relative viability (621-102 (TSC2-deficient) [2]; 0.001 µM) [%]	relative viability (621-102 (TSC2-deficient) [2]; 0.01 µM) [%]	relative viability (621-102 (TSC2-deficient) [2]; 0.1 µM) [%]	relative viability (621-102 (TSC2-deficient) [2]; 1 µM) [%]	relative viability (621-102 (TSC2-deficient) [2]; 10 µM) [%]
Cc1ccc(C(=O)Nc2cccc(C(F)(F)F)c2)cc1Nc1nc(-c2cccnc2)nc2c1cnn2C [NVP-BHG712]	1.21	1.1	1.09	1.12	1.12	1.14	0.95	0.301	0.0076	1.3	1.15	1.19	1.1	1.24	1.37	0.67	0.135	0.011	105 ± 1.7	104.74 ± 0.059	102 ± 1.1	95.4 ± 2.5	78.2 ± 1.3	17.4 ± 1.2	108 ± 1.1	108 ± 0.36	107 ± 2.5	102 ± 2.6	99.4 ± 2	33.9 ± 4
COc1ccc(S(=O)(=O)N(C(C)=O)c2ccccc2/C=C/c2cc[n+]([O-])cc2)cc1 [HMN-214]	1.14	1.08	1.09	1.17	1.09	0.985	0.0414	0.0021	0.00207	1.16	1.09	1.35	1.08	1.01	1.02	0.0913	0.0251	0.03	98.78 ± 0.21	99.62 ± 0.55	100.9 ± 0.31	97.91 ± 0.21	45.5 ± 1.1	39.5 ± 0.96	112 ± 4	110 ± 1.5	96.8 ± 5.4	92.7 ± 1.4	40.4 ± 1.6	37 ± 2.7
CC(C)C[C@H](NC(=O)CNC(=O)c1cc(Cl)ccc1Cl)B(O)O [MLN2238]	0.999	1.11	1.04	1.06	0.886	0.00829	0.00329	0.000634	0.000752	1.04	1.1	0.991	1.15	0.999	0.243	0.0069	0.000706	0.00111	100.04 ± 0.065	102.4 ± 0.21	103 ± 0.3	6.24 ± 0.3	1.63 ± 0.11	0.879 ± 0.059	113.5 ± 0.41	107.81 ± 0.071	109 ± 2.2	33.7 ± 7.2	4.42 ± 0.32	1.79 ± 0.047
CO[C@@H](C(=O)N1Cc2[nH]nc(NC(=O)c3ccc(N4CCN(C)CC4)cc3)c2C1)c1ccccc1	0.936	0.879	0.868	1.02	0.261	0.037	0.0271	0.00276	0.000648	0.925	0.972	0.92	0.989	0.816	0.325	0.0618	0.0757	0.00444	85.7 ± 2.3	90.8 ± 0.93	92.6 ± 5	89.5 ± 2.8	62.3 ± 1.8	11.5 ± 0.39	105 ± 3.9	101 ± 2.8	98 ± 8.5	91.8 ± 2.3	64.1 ± 0.79	31.6 ± 0.91
CCc1cccc(CC)c1NC(=O)N1Cc2[nH]nc(NC(=O)c3ccc(N4CCN(C)CC4)cc3)c2C1	0.986	1.13	1.17	0.98	0.853	0.0445	0.00761	0.00148	0.000776	1.02	0.947	1.01	0.767	0.524	0.292	0.0956	0.0612	0.00895	103 ± 1.6	101.9 ± 0.41	104.5 ± 0.47	103 ± 1.4	64.8 ± 1.1	17.8 ± 0.74	100 ± 7.8	86.5 ± 5.1	101 ± 3.2	91.7 ± 2.3	60.9 ± 2	30.4 ± 1.4
CCOc1ccn(-c2ccc(F)cc2)c(=O)c1C(=O)Nc1ccc(Oc2ccnc(N)c2Cl)c(F)c1	0.977	1.06	0.983	1.01	0.867	1.03	1.02	0.984	0.0304	1.04	0.924	0.972	0.852	0.854	0.991	0.877	0.756	0.0351	88.1 ± 3.7	93.98 ± 0.29	98.93 ± 0.32	99.4 ± 1.1	97.6 ± 3.9	90.8 ± 4.7	106 ± 3.3	101.7 ± 0.87	103 ± 2.8	104.97 ± 0.1	100 ± 1.6	97.17 ± 0.96
CCCCc1nc2cc(/C=C/C(=O)NO)ccc2n1CCN(CC)CC [SB939]	1.04	1.11	1.25	1.22	1.03	0.31	0.0114	0.00881	0.00358	1.27	0.957	0.868	0.884	0.789	0.608	0.351	0.121	0.00937	98.4 ± 1.2	97.63 ± 0.65	96.6 ± 2.1	96.7 ± 1.1	46.1 ± 2.5	2.74 ± 0.067	106 ± 2.5	116 ± 4.8	108.59 ± 0.1	96.3 ± 2	71.42 ± 0.65	35.9 ± 0.61
CC(C)C[C@H](NC(=O)[C@H](Cc1ccccc1)NC(=O)c1cnccn1)B(O)O [Bortezomib]	1.02	0.99	1.02	0.62	0.0154	0.00739	0.0026	0.000806	0.000906	1.07	1.03	0.903	0.16	0.0107	0.00306	0.00178	0.000877	0.000659	97.4 ± 1.6	90 ± 4.2	2.332 ± 0.012	1.43 ± 0.049	1.14 ± 0.0052	1.03 ± 0.066	110 ± 1.3	102 ± 2.8	5.8 ± 0.15	3.06 ± 0.034	2.21 ± 0.16	1.87 ± 0.13
O=c1cc(N2CCOCC2)oc2c(-c3cccc4c3sc3ccccc34)cccc12 [NU7441]	1.06	0.893	1.08	0.961	0.89	0.85	0.236	0.00964	0.00523	1.29	0.918	0.935	0.718	0.623	0.724	0.674	0.227	0.00895	105 ± 2.5	109 ± 1.9	111 ± 1.2	102.6 ± 0.65	101 ± 2.8	56.7 ± 1.8	61.9 ± 2.2	57.3 ± 5.1	78.8 ± 9.5	78.5 ± 3	88.7 ± 5.2	41.2 ± 0.43

Source: the supplement of paper PMC8960247
